According to patent US20230331685A1, “HERBICIDAL COMPOUNDS AND METHODS OF USE THEREOF” (AG Plenus Ltd, priority 2020, published 2023):

Assays:
Type in all cases: in vivo
[1] = system: Arabidopsis thaliana; experiment: HTPS post-emergence application on miniature dicot model plant; details: for Emax: Arabidopsis thaliana, post-emergence, green area (RGB), read-out: Max Inhibition (%); for ED50 (g/ha): dose-response of normalized green area
Protocol: (§1) The plates were placed in a controlled greenhouse in a random order inside a bath which allows flooding irrigation with tap water supplemented with a fertilizer. Applied compounds were dissolved into a final solution of 50% acetone, 49.9% DDW, 0.1% tween-20. A 96 well plate was used as a stock plate for preparing application solutions for 8 repeats. Each row contained different concentrations per chemical. Maximal concentration for application was 1.5 Kg/Ha and dilution factor is 2.5. Chemical application was performed one day after thinning out in a chemical hood. […] applied on first two true leaves in each well using 12 channel pipettes. Data collection: RGB (red, green, blue) data for green area per well was documented using camera. Data is collected at a few time points during the experiment: one day after thinning and before chemical application, two-, six- or nine-days post application. During the last two documentations, visual phenotyping was performed. Data analysis: Given RGB results and visual phenotype scores, a student t-test conducted to compare between treatment and control performance for continuous data (RGB) and Fisher exact test to analyze the non-continuous data (phenotypic scores). Dose-Response curves are generated for each treatment to infer ED50 and max. inhibition parameters, using treatment's log concentration range as the […] variable and normalized green area. Plate imaging performed at 11 and 18 DAA. RGB data for green area per well was documented and used to extract % inhibition. Dose-Response curves were built for each treatment to infer EC50, EC75 and EC90 parameters, using treatment's log concentration range as the independent variable and normalized green area as the dependent variable. Treatments were compared to controls performance given RGB results and using student's t-test (p-val≤0.05). Compounds 104-154 were applied in either or both pre- and post-emergence mode to either or both monocot and dicot model plants, following the methods described above. The compounds were applied as a gradient of concentrations as listed above, from which the ED50 was calculated.

[2] = system: monocot and dicot model plants; experiment: In-planta HTPS, overall assessment; details: on monocots
Protocol: The plates were placed in a controlled greenhouse in a random order inside a bath which allows flooding irrigation with tap water supplemented with a fertilizer. Applied compounds were dissolved into a final solution of 50% acetone, 49.9% DDW, 0.1% tween-20. A 96 well plate was used as a stock plate for preparing application solutions for 8 repeats. Each row contained different concentrations per chemical. Maximal concentration for application was 1.5 Kg/Ha and dilution factor is 2.5. Chemical application was performed one day after thinning out in a chemical hood. […] applied on first two true leaves in each well using 12 channel pipettes. Data collection: RGB (red, green, blue) data for green area per well was documented using camera. Data is collected at a few time points during the experiment: one day after thinning and before chemical application, two-, six- or nine-days post application. During the last two documentations, visual phenotyping was performed. Data analysis: Given RGB results and visual phenotype scores, a student t-test conducted to compare between treatment and control performance for continuous data (RGB) and Fisher exact test to analyze the non-continuous data (phenotypic scores). […] The compounds were applied as a gradient of concentrations as listed above, from which the ED50 was calculated.

[3] = system: Arabidopsis thaliana; experiment: HTPS pre-emergence application on dicot model plant; details: for Max Inhibition (%): green area (RGB); for ED50 (g/ha): dose-response of normalized green area
Protocol: as §1, with “area. […]” for “area.”

[4] = system: Abutilon theophrasti; experiment: LTP pre-emergence greenhouse test; details: Dosage 2000 g/ha
Protocol: (§2) A basic panel of 8 weed species (Table 3) were sowed in 4×4×7 cm plastic pots containing inert sand (Sweet sand), intensively washed using osmosis water. Each specie was sowed in a separate pot. In each pot 10-15 seeds were sowed according to the specie viability. Sowing was performed one day before application. The plants were grown for 21 days in a controlled greenhouse (26±2° C. day 20±2° C. night). Hood irrigation (tap water+Shefer 5:3:8 8 mM) was given at a 50% water content by weight. Compounds were soluble in water (DDW), and commercial herbicide control was soluble in formulation B (Table 4). Application was conducted with an industrial sprayer (TeeJet 6502E nozzle) at a rate of 2 kg/ha and spray volume of […]. Pre-emergence advanced dose response experiment application was conducted at six rates between 1-0.0312 kg/ha and spray volume of […]. Percentage of emergence was evaluated at 15 DAA. Visual phenotyping was recorded using a scale of 0-6 (0: no visible effect, 6: maximum effect) at 18 DAA. All experiments included an untreated control, a solvent control and a positive control (commercial herbicide A.I.). […] Statistical analysis for plant emergence determined by % emergence ≥50 and T test (pval≤0.05), as well as Wilcox test (pval≤0.05).

[5] = system: Alopecurus myosuroides; experiment: LTP pre-emergence greenhouse test; details: Dosage 2000 g/ha
Protocol: as §2

[6] = system: Amaranthus palmeri; experiment: LTP pre-emergence greenhouse test; details: Dosage 2000 g/ha
Protocol: as §2

[7] = system: Ambrosia artemisiifolia; experiment: LTP pre-emergence greenhouse test; details: Dosage 2000 g/ha
Protocol: as §2

[8] = system: Lolium perenne; experiment: LTP pre-emergence greenhouse test; details: Dosage 2000 g/ha
Protocol: as §2

[9] = system: Matricaria chamomilla; experiment: LTP pre-emergence greenhouse test; details: Dosage 2000 g/ha
Protocol: as §2

[10] = system: Poa annua; experiment: LTP pre-emergence greenhouse test; details: Dosage 2000 g/ha
Protocol: as §2

[11] = system: Setaria viridis; experiment: LTP pre-emergence greenhouse test; details: Dosage 2000 g/ha
Protocol: as §2

[12] = system: monocot and eudicot weeds species; experiment: In-planta LTP weed panel, overall assessment; details: for growth inhibition (in words): dicot species, either pre- or post-emergence applications
[13] = system: Setaria viridis; experiment: LTP post-emergence greenhouse test; details: Dosage 2000 g/ha
[14] = system: Alopecurus myosuroides; experiment: LTP post-emergence greenhouse test; details: Dosage 2000 g/ha
[15] = system: Lolium perenne; experiment: LTP post-emergence greenhouse test; details: Dosage 2000 g/ha
[16] = system: Poa annua; experiment: LTP post-emergence greenhouse test; details: Dosage 2000 g/ha
[17] = system: Amaranthus palmeri; experiment: LTP post-emergence greenhouse test; details: Dosage 2000 g/ha
[18] = system: Matricaria chamomilla; experiment: LTP post-emergence greenhouse test; details: Dosage 2000 g/ha
[19] = system: Abutilon theophrasti; experiment: LTP post-emergence greenhouse test; details: Dosage 2000 g/ha
[20] = system: Ambrosia artemisiifolia; experiment: LTP post-emergence greenhouse test; details: Dosage 2000 g/ha

Structure (SMILES): CC(N)CCCCC(=O)O (centres unmarked) [Compound 107]
- Emax [1]: 100%
- ED50 (g/ha) [1]: 200 g/ha

Structure (SMILES): CC(O)C(N)CCCCC(=O)NS(=O)(=O)CC1CCCC1 (centres unmarked) [Compound 101]
- Emax [1]: 100%
- ED50 (g/ha) [1]: 29 g/ha

Structure (SMILES): NC1CCC(CCCC(=O)O)C1 (centres unmarked) [Compound 143]
- Emax [1]: 100%
- ED50 (g/ha) [1]: 61 g/ha

Structure (SMILES): C[C@@H](O)[C@H](N)CCCCC(=O)O [Compound 115]
- Emax [1]: 100%
- ED50 (g/ha) [1]: 13 g/ha

Structure (SMILES): CCC(N)CCCCC(=O)O (centres unmarked) [Compound 149]
- Emax [1]: 100%
- ED50 (g/ha) [1]: 90 g/ha
- activity (in words) [2]: very good activity

Structure (SMILES): COC(=O)CN(C)C(=O)CCCCC(N)C(C)O (centres unmarked) [Compound 102]
- Emax [1]: 90%
- ED50 (g/ha) [1]: 2 g/ha

Structure (SMILES): O=C(O)CCCCC1CCNC1 (centres unmarked) [Compound 123]
- Emax [1]: 100%
- ED50 (g/ha) [1]: 140 g/ha

Structure (SMILES): O=C(O)CCCC1CCCNC1 (centres unmarked) [Compound 154]
- Emax [1]: 100%
- ED50 (g/ha) [1]: 8 g/ha

Structure (SMILES): COC(=O)CCSC1CCCC1N (centres unmarked) [Compound 147]
- Max Inhibition (%) [3]: 100%
- Emax [1]: 50%
- ED50 (g/ha) [1]: 807 g/ha

Structure (SMILES): NC1CCCCC1CCCC(=O)O (centres unmarked) [Compound 152]
- Emax [1]: 100%
- ED50 (g/ha) [1]: 4 g/ha

Structure (SMILES): C[C@@H]1OC(=O)N[C@@H]1CCCCC(=O)O [Compound 106, 5-((4R,5S)-5-methyl-2-oxooxazolidin-4-yl)pentanoic acid]
- Emax [1]: 82%
- ED50 (g/ha) [1]: >1000 g/ha

Structure (SMILES): C[C@H](O)[C@@H](N)CCCCC(=O)O [Compound 114]
- Emax [1]: 100%
- ED50 (g/ha) [1]: 40 g/ha

Structure (SMILES): O=C(O)CCCCC1CCCN1 (centres unmarked) [Compound 148]
- Herbicidal activity (In-planta), LTP-Pre emergence, Abutilon theophrasti [4]: 40-60
- Herbicidal activity (In-planta), LTP-Pre emergence, Alopecurus myosuroides [5]: 0
- Herbicidal activity (In-planta), LTP-Pre emergence, Amaranthus palmeri [6]: 60-80
- Herbicidal activity (In-planta), LTP-Pre emergence, Ambrosia artemisiifolia [7]: 60
- Herbicidal activity (In-planta), LTP-Pre emergence, Lolium perenne [8]: 0
- Herbicidal activity (In-planta), LTP-Pre emergence, Matricaria chamomilla [9]: 60-80
- Herbicidal activity (In-planta), LTP-Pre emergence, Poa annua [10]: 60-80
- Herbicidal activity (In-planta), LTP-Pre emergence, Setaria viridis [11]: 40
- Emax [1]: 100%
- ED50 (g/ha) [1]: 30 g/ha
- activity (in words) ([12]; dicots and monocots, applied pre-emergence): good to moderate activity

Structure (SMILES): CCC(C)C(N)c1cccc(C(=O)O)c1 (centres unmarked) [Compound 108]
- ED50 (g/ha) [3]: 175 g/ha
- Max Inhibition (%) [3]: 100%

Structure (SMILES): C[C@H]1OC(=O)N[C@H]1CCCCC(=O)O [Compound 105, 5-((4S,5R)-5-methyl-2-oxooxazolidin-4-yl)pentanoic acid]
- Emax [1]: 94%
- ED50 (g/ha) [1]: 430 g/ha

Structure (SMILES): COC(=O)CCCSC1CCCC1N (centres unmarked) [Compound 146]
- Herbicidal activity (In-planta), LTP-Pre emergence, Abutilon theophrasti [4]: 0
- Herbicidal activity (In-planta), LTP-Pre emergence, Alopecurus myosuroides [5]: 0
- Herbicidal activity (In-planta), LTP-Pre emergence, Amaranthus palmeri [6]: 60-80
- Herbicidal activity (In-planta), LTP-Pre emergence, Ambrosia artemisiifolia [7]: 0
- Herbicidal activity (In-planta), LTP-Pre emergence, Lolium perenne [8]: 40
- Herbicidal activity (In-planta), LTP-Pre emergence, Matricaria chamomilla [9]: 0
- Herbicidal activity (In-planta), LTP-Pre emergence, Poa annua [10]: 0
- Herbicidal activity (In-planta), LTP-Pre emergence, Setaria viridis [11]: 60
- Emax [1]: 100%
- ED50 (g/ha) [1]: 80 g/ha
- growth inhibition (in words) [12]: moderate growth inhibition

Structure (SMILES): CCC(O)C(N)CCCCC(=O)O (centres unmarked) [Compound 113]
- Emax [1]: 100%
- ED50 (g/ha) [1]: 26 g/ha

Structure (SMILES): CC(C)(C)C(N)c1cccc(C(=O)O)c1 (centres unmarked) [Compound 109]
- Herbicidal activity (In-planta), LTP-Pre emergence, Abutilon theophrasti [4]: 0
- Herbicidal activity (In-planta), LTP-Pre emergence, Alopecurus myosuroides [5]: 0
- Herbicidal activity (In-planta), LTP-Pre emergence, Amaranthus palmeri [6]: 40
- Herbicidal activity (In-planta), LTP-Pre emergence, Ambrosia artemisiifolia [7]: 0
- Herbicidal activity (In-planta), LTP-Pre emergence, Lolium perenne [8]: 0
- Herbicidal activity (In-planta), LTP-Pre emergence, Matricaria chamomilla [9]: 0
- Herbicidal activity (In-planta), LTP-Pre emergence, Poa annua [10]: 0
- Herbicidal activity (In-planta), LTP-Pre emergence, Setaria viridis [11]: 0
- Herbicidal activity (In-planta), LTP-Post emergence, Setaria viridis [13]: 0
- Herbicidal activity (In-planta), LTP-Post emergence, Alopecurus myosuroides [14]: 0
- Herbicidal activity (In-planta), LTP-Post emergence, Lolium perenne [15]: 0
- Herbicidal activity (In-planta), LTP-Post emergence, Poa annua [16]: 0
- Herbicidal activity (In-planta), LTP-Post emergence, Amaranthus palmeri [17]: 40
- Herbicidal activity (In-planta), LTP-Post emergence, Matricaria chamomilla [18]: 0
- Herbicidal activity (In-planta), LTP-Post emergence, Abutilon theophrasti [19]: 0
- Herbicidal activity (In-planta), LTP-Post emergence, Ambrosia artemisiifolia [20]: 40
- ED50 (g/ha) [3]: 24 g/ha
- Emax [1]: 100%
- ED50 (g/ha) [1]: 200 g/ha
- growth inhibition (in words) [12]: moderate growth inhibition
